Reference: patent publication US20220409617A1, “Drug Formulations and Methods of Treatment for Metabolic Disorders” (The Regents of the University of California, priority 2019, published 2022)

Tested on: KRAS G12D knock-in MEFs
Assay: KRAS-mediated mitochondrial fission in KRAS G12D knock-in MEFs
Format: cell-based, mouse
Conditions: 893 5 μM
Protocol: 3T3-L1 cells were maintained in DMEM with 10% FBS and 1% penicillin-streptomycin until induced to differentiate. 3T3-L1 pre-adipocytes were differentiated as described in (M. P. Valley, et al., Anal. Biochem. 505: 43-50, 2016, the disclosure of which is incorporated herein by reference) with slight modifications. Briefly, pre-adipocytes were grown to confluence. After 2 d, cells were induced with maintenance media containing 500 μM IBMX (15879, Sigma-Aldrich, St. Louis, Mo.), 1 μM dexamethasone (D4902, Sigma-Aldrich), 5 μg/mL bovine insulin (10516, Sigma-Aldrich), and 5 μM troglitazone (50-115-0786, ApexBio). Media was changed every 2-3 d for 7 d. On day 7 post-induction, media was changed to maintenance media+5 μg/mL bovine insulin. On day 9 post-induction, media was changed to maintenance media. Mature adipocytes were used 12-14 d post-induction for all experiments. […]
MEFs were washed twice with PBS and fixed with 4% paraformaldehyde for 10 min at RT. […] NADH/NADPH autofluorescence was detected with 740 nm excitation and 450±50 nm detectors using a Mai Tai two-photon laser. Fluorescence microscopy was performed on a Zeiss LSM 780 confocal using a 63× oil objective with a […] numerical aperture (NA) or using a Nikon TE2000-S inverted epifluorescence microscope with a 100× oil objective (1.3 NA) and a Photometrics CoolSNAP ES2 monochrome CCD camera. […]

## CCCCCCCCc1ccc([C@H]2CCN[C@@H]2CO)cc1.Cl [compound 893]
  Correction of KRAS-mediated mitochondrial fission in KRAS G12D MEFs: rapidly corrected KRAS-mediated mitochondrial fission
